This passage reports fold change (FC) and inhibition results from ChEMBL document CHEMBL5653631, “A Potent and Selective ULK1 Inhibitor Suppresses Autophagy and Sensitizes Cancer Cells to Nutrient Stress” (iScience, 2018).

The inhibition is the percentage by which the read-out fell short of the control.

Assay [1] has as its target T1, Serine/threonine-protein kinase BRSK2 (Homo sapiens) (UniProt Q8IWQ3).
T1 sequence (whole entry): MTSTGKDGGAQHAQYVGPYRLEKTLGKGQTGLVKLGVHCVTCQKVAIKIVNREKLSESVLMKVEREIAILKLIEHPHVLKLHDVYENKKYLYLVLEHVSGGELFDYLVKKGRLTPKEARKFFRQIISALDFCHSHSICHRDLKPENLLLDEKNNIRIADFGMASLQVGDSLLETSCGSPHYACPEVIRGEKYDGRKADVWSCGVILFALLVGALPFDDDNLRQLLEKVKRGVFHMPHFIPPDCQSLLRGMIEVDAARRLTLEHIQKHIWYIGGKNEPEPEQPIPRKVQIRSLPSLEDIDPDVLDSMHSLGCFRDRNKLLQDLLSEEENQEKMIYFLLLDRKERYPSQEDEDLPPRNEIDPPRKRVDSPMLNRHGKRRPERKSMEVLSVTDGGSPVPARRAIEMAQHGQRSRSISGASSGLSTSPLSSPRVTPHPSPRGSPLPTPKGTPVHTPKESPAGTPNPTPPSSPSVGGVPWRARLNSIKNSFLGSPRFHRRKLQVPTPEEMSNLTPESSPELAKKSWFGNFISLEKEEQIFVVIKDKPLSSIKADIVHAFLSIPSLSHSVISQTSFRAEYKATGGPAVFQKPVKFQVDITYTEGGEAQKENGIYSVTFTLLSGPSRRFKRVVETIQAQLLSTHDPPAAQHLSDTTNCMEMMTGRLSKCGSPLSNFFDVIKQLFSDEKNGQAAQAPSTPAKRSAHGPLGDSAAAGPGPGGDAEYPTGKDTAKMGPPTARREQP
Kind of assay: Inhibition of human recombinant BRSK2 at 40 nM related to control ULK1.

For assay [2], the target named is T2, Tyrosine-protein kinase ITK/TSK (Homo sapiens) (UniProt Q08881).
T2 sequence (whole entry): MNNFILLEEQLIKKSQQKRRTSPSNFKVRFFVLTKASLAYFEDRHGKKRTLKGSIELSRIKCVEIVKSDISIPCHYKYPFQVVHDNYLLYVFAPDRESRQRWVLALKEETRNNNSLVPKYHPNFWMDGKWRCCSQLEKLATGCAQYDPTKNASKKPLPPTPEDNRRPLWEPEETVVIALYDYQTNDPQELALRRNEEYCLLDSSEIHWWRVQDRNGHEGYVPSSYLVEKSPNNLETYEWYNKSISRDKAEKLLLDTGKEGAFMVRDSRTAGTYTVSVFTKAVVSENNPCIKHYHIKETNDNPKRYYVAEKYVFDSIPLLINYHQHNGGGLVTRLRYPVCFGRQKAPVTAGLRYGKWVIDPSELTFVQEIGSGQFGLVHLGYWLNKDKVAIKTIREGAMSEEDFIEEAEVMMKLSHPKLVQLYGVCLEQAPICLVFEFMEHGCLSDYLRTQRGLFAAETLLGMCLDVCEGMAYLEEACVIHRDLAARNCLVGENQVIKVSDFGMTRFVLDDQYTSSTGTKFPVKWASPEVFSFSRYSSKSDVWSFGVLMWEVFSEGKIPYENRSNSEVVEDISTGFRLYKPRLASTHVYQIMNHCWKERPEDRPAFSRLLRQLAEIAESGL
The experiment in a line: Inhibition of human recombinant ITK at 40 nM in presence of ATP by radiometric assay relative to control.

Assay [3] has as its target Dual specificity tyrosine-phosphorylation-regulated kinase 1B (Homo sapiens) (UniProt Q9Y463). Kind of assay: Inhibition of human recombinant DYRK1B at 500 nM in presence of ATP by radiometric assay relative to control.
In assay [4] the target is Fibroblast growth factor receptor 2 (Homo sapiens) (UniProt P21802). Kind of assay: Inhibition of human recombinant FGFR2 at 500 nM related to control ULK1.
The target of assay [5] is Mitogen-activated protein kinase 1 (Homo sapiens) (UniProt P28482). Kind of assay: Inhibition of human recombinant Erk2 at 15 nM related to control ULK1.
For assay [6], the target named is T3, Bone morphogenetic protein receptor type-2 (Homo sapiens) (UniProt Q13873).
T3 sequence (whole entry): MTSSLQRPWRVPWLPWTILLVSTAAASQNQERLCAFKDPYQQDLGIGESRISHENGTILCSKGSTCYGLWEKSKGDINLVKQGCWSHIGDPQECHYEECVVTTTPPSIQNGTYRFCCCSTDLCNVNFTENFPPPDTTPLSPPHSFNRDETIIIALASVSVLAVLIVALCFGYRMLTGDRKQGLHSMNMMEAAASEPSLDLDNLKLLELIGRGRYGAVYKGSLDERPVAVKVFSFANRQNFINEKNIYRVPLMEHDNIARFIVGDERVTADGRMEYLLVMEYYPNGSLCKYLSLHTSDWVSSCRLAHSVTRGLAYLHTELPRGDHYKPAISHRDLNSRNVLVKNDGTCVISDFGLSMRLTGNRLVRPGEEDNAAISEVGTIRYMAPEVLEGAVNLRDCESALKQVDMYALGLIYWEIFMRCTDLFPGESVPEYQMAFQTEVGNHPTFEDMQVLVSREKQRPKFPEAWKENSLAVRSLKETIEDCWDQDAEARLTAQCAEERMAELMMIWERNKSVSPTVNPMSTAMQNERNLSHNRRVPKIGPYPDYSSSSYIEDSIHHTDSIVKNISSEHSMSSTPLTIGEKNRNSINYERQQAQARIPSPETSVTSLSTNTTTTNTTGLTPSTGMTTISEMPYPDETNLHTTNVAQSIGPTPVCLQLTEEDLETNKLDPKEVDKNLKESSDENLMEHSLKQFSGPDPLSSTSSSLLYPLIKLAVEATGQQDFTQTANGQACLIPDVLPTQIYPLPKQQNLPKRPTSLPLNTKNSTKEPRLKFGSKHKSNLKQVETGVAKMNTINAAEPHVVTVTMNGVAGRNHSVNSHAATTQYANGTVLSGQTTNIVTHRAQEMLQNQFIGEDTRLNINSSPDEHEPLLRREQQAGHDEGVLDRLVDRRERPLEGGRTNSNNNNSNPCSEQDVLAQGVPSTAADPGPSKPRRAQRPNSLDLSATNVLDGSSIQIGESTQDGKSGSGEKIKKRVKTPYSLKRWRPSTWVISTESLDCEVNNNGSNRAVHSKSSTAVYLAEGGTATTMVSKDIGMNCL
Kind of assay: Inhibition of human recombinant BMPR2 at 15 nM related to control ULK1.

Sequence of Dual specificity tyrosine-phosphorylation-regulated kinase 1B (Homo sapiens) (Q9Y463 whole entry, looked up): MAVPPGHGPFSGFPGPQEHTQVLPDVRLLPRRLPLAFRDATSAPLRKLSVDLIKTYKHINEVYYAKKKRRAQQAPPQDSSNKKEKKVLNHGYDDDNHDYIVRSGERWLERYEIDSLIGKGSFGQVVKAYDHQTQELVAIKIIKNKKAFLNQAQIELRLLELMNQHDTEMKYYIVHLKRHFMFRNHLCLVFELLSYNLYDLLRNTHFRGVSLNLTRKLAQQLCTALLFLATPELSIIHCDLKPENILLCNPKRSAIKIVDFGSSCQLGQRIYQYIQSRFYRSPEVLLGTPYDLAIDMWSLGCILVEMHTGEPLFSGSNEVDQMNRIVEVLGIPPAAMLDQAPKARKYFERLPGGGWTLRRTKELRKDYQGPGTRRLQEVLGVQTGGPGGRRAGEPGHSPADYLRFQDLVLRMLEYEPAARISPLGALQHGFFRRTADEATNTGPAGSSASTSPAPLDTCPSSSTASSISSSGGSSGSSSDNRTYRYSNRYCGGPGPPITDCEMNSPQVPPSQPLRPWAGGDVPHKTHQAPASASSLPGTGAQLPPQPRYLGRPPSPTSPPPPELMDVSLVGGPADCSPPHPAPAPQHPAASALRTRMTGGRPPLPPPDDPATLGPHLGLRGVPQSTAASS
Sequence of Fibroblast growth factor receptor 2 (Homo sapiens) (P21802 22-821 limits assumed): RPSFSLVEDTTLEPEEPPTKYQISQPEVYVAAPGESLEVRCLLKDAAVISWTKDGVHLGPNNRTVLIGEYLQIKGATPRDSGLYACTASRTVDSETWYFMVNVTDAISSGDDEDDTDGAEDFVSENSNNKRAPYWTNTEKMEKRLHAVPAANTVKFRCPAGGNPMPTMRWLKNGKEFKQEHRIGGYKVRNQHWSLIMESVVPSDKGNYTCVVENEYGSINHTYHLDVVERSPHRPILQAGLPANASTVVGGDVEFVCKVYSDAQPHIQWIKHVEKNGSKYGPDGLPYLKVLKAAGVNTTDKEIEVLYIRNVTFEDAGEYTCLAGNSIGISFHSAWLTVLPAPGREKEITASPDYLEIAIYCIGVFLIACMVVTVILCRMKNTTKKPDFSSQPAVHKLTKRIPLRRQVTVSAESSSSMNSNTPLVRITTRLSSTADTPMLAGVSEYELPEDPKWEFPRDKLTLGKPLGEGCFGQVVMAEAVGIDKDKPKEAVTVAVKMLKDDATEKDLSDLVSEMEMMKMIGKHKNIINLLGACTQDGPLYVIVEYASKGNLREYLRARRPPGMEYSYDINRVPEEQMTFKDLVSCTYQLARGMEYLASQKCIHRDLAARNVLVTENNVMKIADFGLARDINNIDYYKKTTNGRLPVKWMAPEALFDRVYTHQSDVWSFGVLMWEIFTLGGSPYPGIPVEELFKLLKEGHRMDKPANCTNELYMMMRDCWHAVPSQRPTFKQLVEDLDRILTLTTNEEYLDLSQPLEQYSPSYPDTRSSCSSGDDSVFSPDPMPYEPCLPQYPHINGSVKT
Sequence of Mitogen-activated protein kinase 1 (Homo sapiens) (P28482 whole entry): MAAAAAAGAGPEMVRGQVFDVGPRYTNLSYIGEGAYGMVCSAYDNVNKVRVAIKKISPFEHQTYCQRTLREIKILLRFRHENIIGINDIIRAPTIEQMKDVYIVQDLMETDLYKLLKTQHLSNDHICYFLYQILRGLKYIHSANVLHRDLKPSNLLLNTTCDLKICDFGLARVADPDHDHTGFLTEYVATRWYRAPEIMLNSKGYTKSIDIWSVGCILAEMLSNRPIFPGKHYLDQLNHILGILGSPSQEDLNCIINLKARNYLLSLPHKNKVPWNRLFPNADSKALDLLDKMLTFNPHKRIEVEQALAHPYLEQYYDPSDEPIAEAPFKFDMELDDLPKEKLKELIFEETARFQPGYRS

Consider `O=C(N[C@@H](C1CC1)C(F)(F)F)c1cc(-c2cnn3cc(-c4ccc(F)cc4)cnc23)cs1`, for which the fold change (FC) in assay [1] came to 0. For the same molecule, the inhibition in assay [2] came out at 0%.

Turning to `CNC(=O)c1ccccc1Oc1nc(Nc2cc(OC)c(OC)c(OC)c2)ncc1Br`, the inhibition in assay [3] is 0%. For the same molecule, the fold change (FC) in assay [4] worked out at 0.28.

Turning to `CC(C)[C@H](NC(=O)c1cc(-c2cnn3cc(-c4ccc(OCCN5CCCCC5)cc4)cnc23)cs1)C(F)(F)F`, the fold change (FC) turned out to be 0 in assay [5] and 0.06 in assay [6].
